Calls of active or inactive are those of the source. The calls are words filed in the database; no cut-off is given here.
What was measured:
[1] = Cmax in ICR mouse at 50 mg/kg, ip after 0.08 to 24 hrs by HPLC-MS/MS analysis; assay type: ADME, organism-based; parameters: dose 50 mg/kg, route intraperitoneal; settings: in vivo
[2] = system: A549; test: Antiproliferative activity against human A549 cells harboring control siRNA after 48 hrs by MTT assay; assay type: functional, cell-based; settings: A549, 48 h
[3] = biological target: Tubulin (Homo sapiens) (UniProt P68371+Q9H4B7+P0DPH7+P68366+Q13509+Q71U36+P04350+Q3ZCM7+P07437+P68363+Q9BQE3+Q6PEY2+Q13885+Q9BVA1+Q9BUF5); test: Induction of tubulin depolymerization in human HeLa cells after 24 hrs by DAPI staining based fluorescence microscopic analysis; assay type: cell-based
[4] = system: A2780; test: Antitumour activity against human A2780 cells xenografted in Balb/c mouse assessed as reduction in tumour weight at 25 to 50 mg/kg, ip administered every other day; assay type: functional, organism-based
[5] = system: A549; test: Induction of apoptosis in human A549 cells assessed as early apoptotic cells at 1 uM after 48 hrs by Annexin-V/propidium iodide staining based flow cytometric method (reference value: 0.51%); assay type: functional
[6] = system: A2780; test: Antiproliferative activity against human A2780 cells assessed as reduction in cell viability after 48 hrs by MTT assay; assay type: functional, cell-based; settings: A2780, 48 h
[7] = system: A549; test: Induction of apoptosis in human A549 cells assessed as increase in Bad expression level at 2 to 8 uM after 48 hrs by immunoblotting analysis; assay type: functional, cell-based
[8] = Tmax in ICR mouse at 50 mg/kg, ip after 0.08 to 24 hrs by HPLC-MS/MS analysis; assay type: ADME, organism-based; settings: in vivo
[9] = system: A549; test: Induction of apoptosis in human A549 cells assessed as early apoptotic cells at 0.5 uM after 48 hrs by Annexin-V/propidium iodide staining based flow cytometric method (reference value: 0.51%); assay type: functional
[10] = Half life in ICR mouse at 50 mg/kg, ip after 0.08 to 24 hrs by HPLC-MS/MS analysis; assay type: ADME, organism-based; settings: in vivo
[11] = AUC (0 to 24 hrs) in ICR mouse at 50 mg/kg, ip after 0.08 to 24 hrs by HPLC-MS/MS analysis; assay type: ADME, organism-based; parameters: time < 24 hr, dose 50 mg/kg, route intraperitoneal; settings: in vivo
[12] = system: A549; test: Induction of apoptosis in human A549 cells after 48 hrs by Annexin-V/propidium iodide staining based flow cytometric method; assay type: functional, cell-based
[13] = biological target: Katanin p60 ATPase-containing subunit A1 (Homo sapiens) (UniProt O75449); test: Inhibition of Katanin p60 degradation in human A549 cells preincubated for 15 mins followed by compound addition in presence of cycloheximide by immunoblotting analysis; assay type: cell-based
Chain of Katanin p60 ATPase-containing subunit A1 (Homo sapiens) (O75449 whole entry): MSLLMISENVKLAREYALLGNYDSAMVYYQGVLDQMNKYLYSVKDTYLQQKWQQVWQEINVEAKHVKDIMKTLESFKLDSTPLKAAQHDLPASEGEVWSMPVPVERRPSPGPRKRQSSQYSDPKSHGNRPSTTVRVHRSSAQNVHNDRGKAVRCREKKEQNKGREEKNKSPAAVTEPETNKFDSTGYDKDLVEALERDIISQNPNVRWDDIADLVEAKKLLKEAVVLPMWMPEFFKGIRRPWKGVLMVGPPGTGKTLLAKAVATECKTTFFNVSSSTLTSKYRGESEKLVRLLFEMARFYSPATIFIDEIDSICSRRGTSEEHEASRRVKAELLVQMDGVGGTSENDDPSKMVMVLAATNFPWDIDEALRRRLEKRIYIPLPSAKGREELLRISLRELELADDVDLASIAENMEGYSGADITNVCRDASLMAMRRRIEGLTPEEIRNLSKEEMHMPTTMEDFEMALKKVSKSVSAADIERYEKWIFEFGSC

[14] = system: A549; test: Induction of apoptosis in human A549 cells assessed as viable cells at 0.5 uM after 48 hrs by Annexin-V/propidium iodide staining based flow cytometric method (reference value: 92.05%); assay type: functional; settings: A549, 48 h, read-out: Activity
[15] = system: HCT-116; test: Antiproliferative activity against human HCT116 cells assessed as reduction in cell viability after 48 hrs by MTT assay; assay type: functional, cell-based; settings: HCT-116, 48 h
[16] = biological target: Tubulin (Sus scrofa, UniProt P02554+P02550); test: (§1) Inhibition of pig brain tubulin polymerization measured every 1 min for 25 mins by spectrophotometric method
[17] = biological target: Tubulin (Sus scrofa) (UniProt P02554+P02550); test: as §1
Chain of Tubulin (Sus scrofa) (P02550 whole entry, looked up): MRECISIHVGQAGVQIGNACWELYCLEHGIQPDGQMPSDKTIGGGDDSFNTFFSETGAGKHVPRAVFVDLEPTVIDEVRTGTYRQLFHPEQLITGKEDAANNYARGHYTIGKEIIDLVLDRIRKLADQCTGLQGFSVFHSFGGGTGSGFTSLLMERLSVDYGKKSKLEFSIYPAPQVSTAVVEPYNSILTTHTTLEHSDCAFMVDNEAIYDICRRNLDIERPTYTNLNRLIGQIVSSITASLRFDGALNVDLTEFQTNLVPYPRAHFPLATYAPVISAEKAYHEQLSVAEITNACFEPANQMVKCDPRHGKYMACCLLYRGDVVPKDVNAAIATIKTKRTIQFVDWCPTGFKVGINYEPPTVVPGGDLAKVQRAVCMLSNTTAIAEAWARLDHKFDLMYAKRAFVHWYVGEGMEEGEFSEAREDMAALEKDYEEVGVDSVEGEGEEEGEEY
Chain of Tubulin (Sus scrofa) (P02554 whole entry, looked up): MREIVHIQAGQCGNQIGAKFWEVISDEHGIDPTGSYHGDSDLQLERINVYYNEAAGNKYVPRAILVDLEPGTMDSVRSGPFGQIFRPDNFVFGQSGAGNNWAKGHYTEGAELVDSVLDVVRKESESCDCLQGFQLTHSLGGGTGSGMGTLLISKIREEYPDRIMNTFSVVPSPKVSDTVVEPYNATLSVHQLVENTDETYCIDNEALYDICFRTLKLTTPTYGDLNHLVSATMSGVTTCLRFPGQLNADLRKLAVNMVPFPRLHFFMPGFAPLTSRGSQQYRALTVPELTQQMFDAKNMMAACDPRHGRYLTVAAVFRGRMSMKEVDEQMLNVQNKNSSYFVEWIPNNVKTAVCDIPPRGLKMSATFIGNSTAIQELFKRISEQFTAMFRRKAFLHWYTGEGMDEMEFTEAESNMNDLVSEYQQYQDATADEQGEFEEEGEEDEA

[18] = Apparent volume of distribution in ICR mouse at 50 mg/kg, ip after 0.08 to 24 hrs by HPLC-MS/MS analysis; assay type: ADME, organism-based; settings: in vivo
[19] = system: A549; test: Induction of apoptosis in human A549 cells assessed as increase in p53 expression level at 2 to 8 uM after 48 hrs by immunoblotting analysis; assay type: functional, cell-based
[20] = system: A549; test: Induction of apoptosis in human A549 cells assessed as viable cells at 1 uM after 48 hrs by Annexin-V/propidium iodide staining based flow cytometric method (reference value: 92.05%); assay type: functional; settings: A549, 48 h, read-out: Activity
[21] = Apparent oral clearance ICR mouse at 50 mg/kg, ip after 0.08 to 24 hrs by HPLC-MS/MS analysis; assay type: ADME, organism-based; settings: in vivo
[22] = system: A549; test: Cell cycle arrest in human A549 cells assessed as increase in cyclin B1 expression at 0.5 to 2 uM after 24 hrs by immunoblotting analysis; assay type: functional, cell-based
[23] = system: A549; test: Cell cycle arrest in human A549 cells assessed as increase in p21 expression at 0.5 to 2 uM after 24 hrs by immunoblotting analysis; assay type: functional, cell-based
[24] = system: A549; test: Induction of apoptosis in human A549 cells assessed as necrotic cells at 0.5 uM after 48 hrs by Annexin-V/propidium iodide staining based flow cytometric method (reference value: 6.26%); assay type: functional
[25] = system: A549; test: Induction of apoptosis in human A549 cells assessed as late apoptotic cells at 1 uM after 48 hrs by Annexin-V/propidium iodide staining based flow cytometric method (reference value: 1.18%); assay type: functional
[26] = system: HUVEC; test: Cytotoxicity against HUVEC after 48 hrs by MTT assay; assay type: cell-based; settings: Homo sapiens
[27] = system: A549; test: Induction of apoptosis in human A549 cells assessed as early apoptotic cells at 2 uM after 48 hrs by Annexin-V/propidium iodide staining based flow cytometric method (reference value: 0.51%); assay type: functional
[28] = system: A549; test: Induction of apoptosis in human A549 cells assessed as late apoptotic cells at 2 uM after 48 hrs by Annexin-V/propidium iodide staining based flow cytometric method (reference value: 1.18%); assay type: functional
[29] = system: A549; test: Induction of apoptosis in human A549 cells assessed as viable cells at 2 uM after 48 hrs by Annexin-V/propidium iodide staining based flow cytometric method (reference value: 92.05%); assay type: functional; settings: A549, 48 h, read-out: Activity
[30] = system: A549; test: Cell cycle arrest in human A549 cells assessed as accumulation of cells at G2/M phase at 0.5 to 2 uM after 24 hrs by RNase A/propidium iodide staining-based flow cytometric analysis; assay type: functional
[31] = Binding affinity to human katanin by MST assay
[32] = system: HUVEC; test: Antiangiogenic activity in HUVEC assessed as inhibition of capillary like tube formation in matrigel at 0.2 uM after 24 hrs by matrigel-based inverted microscopic analysis; assay type: functional, cell-based; settings: Homo sapiens
[33] = system: A549; test: Antiproliferative activity against human A549 cells harboring katanin siRNA after 48 hrs by MTT assay; assay type: functional, cell-based; settings: A549, 48 h
[34] = MRT in ICR mouse at 50 mg/kg, ip after 0.08 to 24 hrs by HPLC-MS/MS analysis; assay type: ADME, organism-based; settings: in vivo
[35] = system: HUVEC; test: Antiangiogenic activity in HUVEC assessed as inhibition of capillary like tube formation in matrigel at 0.4 uM after 24 hrs by matrigel-based inverted microscopic analysis relative to control; assay type: functional; settings: Homo sapiens
[36] = system: A549; test: Induction of apoptosis in human A549 cells assessed as late apoptotic cells at 0.5 uM after 48 hrs by Annexin-V/propidium iodide staining based flow cytometric method (reference value: 1.18%); assay type: functional
[37] = system: A549; test: Cell cycle arrest in human A549 cells assessed as increase in histone 3 phosphorylation at 0.5 to 2 uM after 24 hrs by immunoblotting analysis; assay type: functional, cell-based
[38] = system: A549; test: Cell cycle arrest in human A549 cells after 24 hrs by RNase A/propidium iodide staining-based flow cytometric analysis; assay type: functional
[39] = system: HeLa; test: Antiproliferative activity against human HeLa cells assessed as reduction in cell viability after 48 hrs by MTT assay; assay type: functional, cell-based
[40] = AUC(0 to infinity) in ICR mouse at 50 mg/kg, ip after 0.08 to 24 hrs by HPLC-MS/MS analysis; assay type: ADME, organism-based; parameters: dose 50 mg/kg, time infinity, route intraperitoneal; settings: in vivo
[41] = system: A549; test: Inhibition of colony formation in human A549 cells after 48 hrs by crystal violet staining based assay; assay type: functional, cell-based
[42] = Toxicity in Balb/c mouse xenografted with human A2780 cells assessed effect on body weight at 25 to 50 mg/kg, ip administered every other day; assay type: organism-based; settings: in vivo
[43] = system: A549; test: Induction of apoptosis in human A549 cells assessed as necrotic cells at 2 uM after 48 hrs by Annexin-V/propidium iodide staining based flow cytometric method (reference value: 6.26%); assay type: functional
[44] = system: A549; test: Antiproliferative activity against human A549 cells assessed as reduction in cell viability after 48 hrs by MTT assay; assay type: functional, cell-based; settings: A549, 48 h
[45] = system: A549; test: Induction of apoptosis in human A549 cells assessed as necrotic cells at 1 uM after 48 hrs by Annexin-V/propidium iodide staining based flow cytometric method (reference value: 6.26%); assay type: functional
[46] = system: A549; test: Induction of apoptosis in human A549 cells assessed as PARP cleavage at 2 to 8 uM after 48 hrs by immunoblotting analysis; assay type: functional, cell-based
[47] = system: A2780; test: Antitumour activity against human A2780 cells xenografted in Balb/c mouse assessed as reduction in tumour volume at 25 to 50 mg/kg, ip administered every other day by caliper method; assay type: functional, organism-based

Cmax [1]: 580 ng/mL
IC50 [2]: 340 nM
Activity [3]: Dose-dependent effect
IC50 [6]: 210 nM
Tmax [8]: 0.23 h
half-life [10]: 9.36 h
AUC(0-t) at 24 h [11]: 2630 ng·h/mL
inhibition [13]: inactive
IC50 [15]: 170 nM
IC50 [16]: 8400 nM
inhibition [17]: Dose-dependent effect
Vd/F [18]: 4625.07 mL
CL/F [21]: 5.73 mL/min
Kd [31]: 12700 nM
IC50 [33]: 1480 nM
MRT [34]: 8.39 h
IC50 [39]: 250 nM
AUC(0-inf) [40]: 2950 ng·h/mL
IC50 [44]: 400 nM
SMILES: COc1ccc(-c2cc3c([nH]c(=O)n3-c3cc(OC)c(OC)c(OC)c3)c(C(N)=O)n2)cc1O
Activity [4]: Active
Activity [5]: 15.85%
Activity [7]: Active
Activity [9]: 7.51%
Activity [12]: Dose-dependent effect
viability at 0.5 µM [14]: 79.7%
Activity [19]: Active
viability at 1 µM [20]: 65.1%
Activity [22]: Active
Activity [23]: Active
Activity [24]: 7.34%
Activity [25]: 8.69%
IC50 [26]: > 10000 nM
Activity [27]: 36.48%
Activity [28]: 14.08%
viability at 2 µM [29]: 42.2%
inhibition [30]: Active
inhibition [32]: Active
inhibition at 0.4 µM [35]: 100%
Activity [36]: 5.43%
Activity [37]: Active
inhibition [38]: Dose-dependent effect
inhibition [41]: Dose-dependent effect
Activity [42]: Non-Toxic
Activity [43]: 7.2%
Activity [45]: 10.33%
Activity [46]: Active
Activity [47]: Active

Reference: ChEMBL document CHEMBL4359815, “Design, synthesis, antitumor activities and biological studies of novel diaryl substituted fused heterocycles as dual ligands targeting tubulin and katanin” (Eur J Med Chem, 2019)
